Source: patent US12509451B2, “Heteroaryl amide inhibitors of CD38” (NAPA THERAPEUTICS LTD., priority 2020, dated 2025)

Legend:
[1] = molecular target: T1, recombinant mouse CD38 Protein (Mus musculus, UniProt P56528); assay: Fluorescence-based NAD+ hydrolase activity assay with mouse recombinant CD38 protein (Assay 5); assay type: biochemical; conditions: read-out: Assay 5 Arithmetic mean IC50
T1 construct: purchased R&D System
T1 sequence (P56528 1-304): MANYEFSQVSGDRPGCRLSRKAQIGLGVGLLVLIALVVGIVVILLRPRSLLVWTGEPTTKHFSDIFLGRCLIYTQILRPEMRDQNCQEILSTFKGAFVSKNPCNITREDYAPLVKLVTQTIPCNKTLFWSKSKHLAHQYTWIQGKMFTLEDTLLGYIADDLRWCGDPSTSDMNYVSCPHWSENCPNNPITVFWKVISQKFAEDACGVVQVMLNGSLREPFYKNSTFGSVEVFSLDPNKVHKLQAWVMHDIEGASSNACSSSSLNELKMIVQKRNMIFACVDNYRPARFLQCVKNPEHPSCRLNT
Procedure: This protocol was modified from the following references: Muller et al. (1983); Schultz et al. (2018); Matalonga et al. (2017); and de Oliveira et al. (2018), supra.
(§1) NAD+ hydrolase activity of the mouse recombinant CD38 protein treated with test compounds was measured using a fluorescence-based assay. Briefly, recombinant mouse CD38 Protein (R&D System) was resuspended in 44 μl/well of Sucrose-Tris Buffer (Sucrose 0.25 M, Tris pH 7.4 40 mM) and plated in a 96 well black plate (CORNING) at a density of 2.5 ng/well.
(§2) Each test compound was received in a powder state and dissolved in DMSO as a 25 mM stock solution. Each test compound was serially diluted in order to generate a dose-response curve. The dilution series of each test compound in DMSO was prepared at 50 times the concentrations to be assayed. Each test compound was diluted to generate a 5-fold dilution series of 8 concentrations from 20 μM to 0.256 nM in order to assay 8 final concentrations ranging from 400 nM to 25.6 pM. One μl of the 50× concentration compound series was added to each well of the plate containing 2.5 ng of protein in Sucrose-Tris buffer.
Each plate had the following intra plate controls: 3 wells containing cells treated with vehicle only (DMSO), 3 wells of cells treated with the reference compounds 78c at a final concentration of 50 nM and 2 wells containing only Sucrose-Tris buffer (used as a background value).
The reaction was started adding nicotinamide 1,N^6-etheno-adenine dinucleotide (Sigma Aldrich) to reach a final concentration of 80 µM. The samples were excited at 321-15 nm and the emission of fluorescence was measured at 410-20 nm at 37° C. every minute for 1 hr in a Clariostar Microplate® reader (BMG LABTECH). NAD+ hydrolase activity was calculated as the slope of the linear portion of the fluorescence-time curve using the MARS data analysis software (BMG LABTECH). The data were uploaded in the Collaborative Drug Design (CDD) Software and for each compound the IC50 was calculated by the software. Each compound was tested in 3 independent experiments on 3 separate days to establish the reproducibility of the results. For each plate, the z-factor was also calculated as a plate quality using the CDD software.

[2] = molecular target: T2, recombinant human CD38 Protein (Homo sapiens, UniProt P28907); assay: Fluorescence-based NAD+ cyclase activity assay with human recombinant CD38 protein (Assay 2); assay type: biochemical; conditions: read-out: Assay 2 Arithmetic mean IC50
T2 construct: purchased R&D System
T2 sequence (P28907 1-300): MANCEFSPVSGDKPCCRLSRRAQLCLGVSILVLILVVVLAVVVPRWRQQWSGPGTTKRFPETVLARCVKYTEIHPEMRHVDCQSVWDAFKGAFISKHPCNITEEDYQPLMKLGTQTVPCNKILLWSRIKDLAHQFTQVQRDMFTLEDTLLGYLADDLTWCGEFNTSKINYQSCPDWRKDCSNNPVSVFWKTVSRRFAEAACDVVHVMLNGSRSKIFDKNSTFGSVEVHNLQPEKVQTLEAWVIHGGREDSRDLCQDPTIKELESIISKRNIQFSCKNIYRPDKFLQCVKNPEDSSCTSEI
Procedure: This protocol was modified from the de Oliveira et al., 2018 reference, supra.
as §1, with “cyclase” for “hydrolase”, “human” for “mouse”, “96-well” for “96 well”, “125” for “2.5”
as §2, with “100” for “20”, “32” for “0.256”, “2 μM” for “400 nM”, “0.64 nM.” for “25.6 pM.”, “125” for “2.5”
The reaction was started adding nicotinamide guanine dinucleotide (NGD+) (Sigma Aldrich) to reach a final concentration of 150 µM. The samples were excited at 337-15 nm, and the emission of fluorescence was measured at 442-20 nm at 37° C. every minute for 1 hr in a Clariostar microplate reader (BMG LABTECH). NAD+ cyclase activity was calculated as the slope of the linear portion of the fluorescence-time curve using the MARS data analysis software (BMG LABTECH). The data were uploaded in the Collaborative Drug Design (CDD) Software, and for each compound the IC50 was calculated by the software. For each plate, the z-factor was also calculated as a plate quality using the CDD software.

Row | IC50 [1] [nM] | IC50 [2] [nM] | Structure (SMILES)
1 | < 1 | 51 to 1000 | O=C(Nc1ccnc(C(F)(F)F)c1)c1cc(C2CC2)nc(-n2ccnc2)n1 [Compound 51, 6-cyclopropyl-2-(1H-imidazol-1-yl)-N-(2-(trifluoromethyl)pyridin-4-yl)pyrimidine-4-carboxamide]
2 | 1 to 50 | 1000 to 10000 | Cc1ccc(NC(=O)c2cccc(-n3ccnc3)n2)cn1 [Compound 14]
3 | < 1 | 51 to 1000 | COc1cc(C(=O)Nc2ccnc(C(F)(F)F)c2)nc(-n2ccnc2)n1 [Compound 37, 2-(1H-imidazol-1-yl)-6-methoxy-N-(2-(trifluoromethyl)pyridin-4-yl)pyrimidine-4-carboxamide]
4 | < 1 | 1 to 50 | Cc1cc(C(=O)Nc2cccnc2)nc(-n2ccnc2)n1 [Compound 49, 2-(1H-imidazol-1-yl)-6-methyl-N-(pyridin-3-yl)pyrimidine-4-carboxamide]
5 | 1 to 50 | 1000 to 10000 | Cn1cncc1-c1cccc(C(=O)Nc2cccnc2)n1 [Compound 42, 6-(1-methyl-1H-imidazol-5-yl)-N-(pyridin-3-yl)picolinamide]
6 | 1 to 50 | 1000 to 10000 | O=C(Nc1ccnc(C(F)(F)F)c1)c1cccc(-n2ccnc2)n1 [Compound 28]
7 | 1 to 50 | 1000 to 10000 | CC(=O)N(C)c1ccc(NC(=O)c2cccc(-n3ccnc3)n2)cn1 [Compound 15]
8 | 1 to 50 | 51 to 1000 | COc1cc(C(=O)Nc2cccnc2)nc(-n2ccnc2)c1 [Compound 36]
9 | 1 to 50 | 51 to 1000 | O=C(Nc1ccc(C(F)(F)F)nc1)c1cccc(-n2ccnc2)n1 [Compound 9]
10 | < 1 | 1 to 50 | Cc1cc(C(=O)Nc2ccc(C(N)=O)nc2)nc(-n2ccnc2)c1 [Compound 54, N-(6-carbamoylpyridin-3-yl)-6-(1H-imidazol-1-yl)-4-methylpicolinamide]
11 | < 1 | 51 to 1000 | COc1cc(C(=O)Nc2ccnc(C(F)(F)F)c2)nc(-n2ccnc2)c1 [Compound 35, 6-(1H-imidazol-1-yl)-4-methoxy-N-(2-(trifluoromethyl)pyridin-4-yl)picolinamide]
12 | 1 to 50 | 1000 to 10000 | O=C(Nc1ccncn1)c1cccc(-n2ccnc2)n1 [Compound 24]
13 | < 1 | 1 to 50 | CNC(=O)c1ccc(NC(=O)c2cc(C)cc(-n3ccnc3)n2)cn1 [Compound 57]
14 | < 1 | 1 to 50 | Cc1cc(C(=O)Nc2ccncc2)nc(-n2ccnc2)c1 [Compound 52, 6-(1H-imidazol-1-yl)-4-methyl-N-(pyridin-4-yl)picolinamide]
15 | 1 to 50 | 51 to 1000 | Cc1cc(NC(=O)c2cccc(-n3ccnc3)n2)ccn1 [Compound 11]
16 | 1 to 50 | 1000 to 10000 | O=C(Nc1cccnc1)c1ccc(F)c(-n2ccnc2)n1 [Compound 61]
17 | < 1 | 51 to 1000 | CNC(=O)c1cc(NC(=O)c2cc(C)cc(-n3ccnc3)n2)ccn1 [Compound 56]
18 | < 1 | 51 to 1000 | O=C(Nc1ccnc(C(F)(F)F)c1)c1cc(OCc2ccccc2)cc(-n2ccnc2)n1 [Compound 29, 4-(benzyloxy)-6-(1H-imidazol-1-yl)-N-[2-(trifluoromethyl)pyridin-4-yl]pyridine-2-carboxamide]

Row | IC50 [1] [nM] | IC50 [2] [nM] | Structure (SMILES)
19 | 1 to 50 | 1000 to 10000 | Cn1ccnc1-c1cccc(C(=O)Nc2cccnc2)n1 [Compound 48]
20 | < 1 | 51 to 1000 | CN(C)CCOc1cc(C(=O)Nc2ccnc(C(F)(F)F)c2)nc(-n2ccnc2)c1 [Compound 33]
21 | < 1 | 51 to 1000 | O=C(Nc1ccnc(C(F)(F)F)c1)c1cc(OC2CC2)nc(-n2ccnc2)n1 [Compound 40]
22 | 51 to 1000 | 51 to 1000 | O=C(Nc1ccnc(C(F)(F)F)c1)c1cc(OC2CC2)cc(-n2ccnc2)n1 [Compound 32, 4-cyclopropoxy-6-(1H-imidazol-1-yl)-N-(2-(trifluoromethyl)pyridin-4-yl)picolinamide]
23 | < 1 | 51 to 1000 | Cc1cc(C(=O)Nc2ccnc(C(N)=O)c2)nc(-n2ccnc2)c1 [Compound 55]
24 | 1 to 50 | 51 to 1000 | O=C(Nc1ccnc(F)c1)c1cccc(-n2ccnc2)n1 [Compound 8]
25 | < 1 | 51 to 1000 | Cc1cc(C(=O)Nc2cccnc2)nc(-n2ccnc2)c1 [Compound 53]
26 | < 1 | 1 to 50 | Cc1cc(C(=O)Nc2ccncc2)nc(-n2ccnc2)n1 [Compound 50]
27 | < 1 | 51 to 1000 | O=C(Nc1ccnc(C(F)(F)F)c1)c1cc(OCC2CCOCC2)cc(-n2ccnc2)n1 [Compound 30, 6-(1H-imidazol-1-yl)-4-((tetrahydro-2H-pyran-4-yl)methoxy)-N-(2-(trifluoromethyl)pyridin-4-yl)picolinamide]
28 | < 1 | 1 to 50 | CNC(=O)c1ccc(NC(=O)c2cccc(-n3ccnc3)n2)cn1 [Compound 2]
29 | 1 to 50 | 51 to 1000 | Cc1ccc(-n2ccnc2)nc1C(=O)Nc1cccnc1 [Compound 59, 6-(1H-imidazol-1-yl)-3-methyl-N-(pyridin-3-yl)picolinamide]
30 | < 1 | 51 to 1000 | CC1(Oc2cc(C(=O)Nc3ccnc(C(F)(F)F)c3)nc(-n3ccnc3)c2)COC1 [Compound 34, 6-(1H-imidazol-1-yl)-4-((3-methyloxetan-3-yl)oxy)-N-(2-(trifluoromethyl)pyridin-4-yl)picolinamide]
31 | 1 to 50 | 51 to 1000 | COc1cc(NC(=O)c2cccc(-n3ccnc3)n2)ccn1 [Compound 12]
32 | 1 to 50 | 1000 to 10000 | COc1ccc(NC(=O)c2cccc(-n3ccnc3)n2)cn1 [Compound 18]
33 | 1 to 50 | 51 to 1000 | Cn1ccnc1-c1cccc(C(=O)Nc2ccc(C(F)(F)F)nc2)n1 [Compound 47]
34 | < 1 | 51 to 1000 | COCCOc1cc(C(=O)Nc2ccnc(C(F)(F)F)c2)nc(-n2ccnc2)c1 [Compound 31, 6-(1H-imidazol-1-yl)-4-(2-methoxyethoxy)-N-(2-(trifluoromethyl)pyridin-4-yl)picolinamide]
35 | 1 to 50 | 51 to 1000 | COC(=O)c1ccc(NC(=O)c2cccc(-n3ccnc3)n2)cn1 [Compound 27]
36 | 1 to 50 | 1000 to 10000 | O=C(Nc1cccnc1)c1cccc(-n2ccnc2)n1 [Compound 20]
